Each structure is given as a SMILES string. Structures can show the parent of a compound that is named as a salt.

One may read the IC90 as the concentration needed for an effect of 90%.

This test concerns Acinetobacter baumannii ATCC17961. The test is described as follows: Antimicrobial susceptibility testing: 90% growth inhibitory concentration (IC90) determination. It counts as cell-based. To be noted: Acinetobacter baumannii ATCC17961, Iso-Sensitest broth, OD 600 nm over 16 h. Put shortly:
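Compounds in twofold series (e.g. 50 to 0.097 μM final) in Iso-Sensitest broth, inoculated at ~5×10^5 CFU/ml, incubated at 35±2° C. OD600 was read every 20 minutes for 16 h. IC90 was derived from growth inhibition during logarithmic phase.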
Compound `COc1ccc(-c2cnc3c(Nc4cc(F)c(C(=O)N5CCN(C(=O)[C@@H]6C[C@@H](O)CN6)CC5)c(F)c4)nccn23)c(F)c1F` [Example 49, (4-(4-((3-(2,3-difluoro-4-methoxyphenyl)imidazo[1,2-a]pyrazin-8-yl)amio)-2,6-difluorobenzoyl)piperazin-1-yl)((2S,4R)-4-hydroxypyrrolidin-2-yl)methanone dihydrochloride] gave an IC90 of 72.2 nM. This lies in the double-digit nanomolar range.
In the case of `O=C(c1ccc(Nc2nccn3c(-c4ccc(OC(F)F)c(F)c4F)cnc23)cc1F)N1CCN(C(=O)C2CCN(CC3CCNC3)CC2)CC1` (stereo not drawn) [Example 114, (4-(4-((3-(4-(difluoromethoxy)-2,3-difluorophenyl)imidazo[1,2-a]pyrazin-8-yl)amino)-2-fluorobenzoyl)piperazin-1-yl)(1-(pyrrolidin-3-ylmethyl)piperidin-4-yl)methanone bis(2,2,2-trifluoroacetate)] it was 56 nM.
Compound `COc1ccc(-c2cnc3c(Nc4cc(F)c(C(=O)N5CCN(C(=O)[C@@H]6C[C@@H](O)CN6)CC5)c(Cl)c4)nccn23)c(F)c1F` [Example 50, (4-(2-chloro-4-((3-(2,3-difluoro-4-methoxyphenyl)imidazo[1,2-a]pyrazin-8-yl)amino)-6-fluorobenzoyl)piperazin-1-yl)((2S,4R)-4-hydroxypyrrolidin-2-yl)methanone dihydrochloride] gave an IC90 of 82.1 nM.
For the compound `N#CCOc1ccc(-c2cnc3c(Nc4ccc(C(=O)N5CCN(C(=O)[C@@H]6C[C@@H](O)CN6)CC5)c(Cl)c4)nccn23)c(Cl)c1F` [Example 33, 2-[3-chloro-4-[8-[3-chloro-4-[4-[(2S,4R)-4-hydroxypyrrolidine-2-carbonyl]piperazine-1-carbonyl]anilino]imidazo[1,2-a]pyrazin-3-yl]-2-fluoro-phenoxy]acetonitrile Formate], the IC90 is 33.9 nM.
In the case of `N#CCOc1ccc(-c2cnc3c(Nc4ccc(C(=O)N5CCN(C(=O)CN6CCC(C(=O)O)C6)CC5)c(Cl)c4)nccn23)c(F)c1F` (stereo not drawn) [Example 108, 1-(2-(4-(2-chloro-4-((3-(4-(cyanomethoxy)-2,3-difluorophenyl)imidazo[1,2-a]pyrazin-8-yl)amino)benzoyl)piperazin-1-yl)-2-oxoethyl)pyrrolidine-3-carboxylic acid trifluoroacetate] it was 350 nM; in that of `COc1ccc(-c2cnc3c(Nc4ccc(C(=O)N5CCN(C(=O)[C@@H]6C[C@@H](O)CN6)CC5)c(Cl)c4)nccn23)c(F)c1F` [Example 35, [2-chloro-4-[[3-(2,3-difluoro-4-methoxy-phenyl)imidazo[1,2-a]pyrazin-8-yl]amino]phenyl]-[4-[(2S,4R)-4-hydroxypyrrolidine-2-carbonyl]piperazin-1-yl]methanone formate], 41.2 nM.

The values are drawn from patent US20230022724A1, “NOVEL IMIDAZOPYRAZINE DERIVATIVES” (Hoffmann-La Roche Inc., priority 2018, published 2023).
